Here are results for one compound from patent US9138659B2, “Compositions, methods, and systems relating to controlled crystallization and/or nucleation of molecular species” (Massachusetts Institute of Technology, priority 2010, dated 2015).

Structures are written as SMILES. ≈ marks a conversion by molar mass, not a printed value.

Common to all, as to assay type: physicochemical
The nature of data set [1]: Nucleation induction time of aspirin on nanopatterned AA-co-DVB polymer films from butyl acetate. The note with it: for Nucleation induction time τ: aspirin, butyl acetate. From the text:
The effect of nanopatterned polymer films on the kinetics of nucleation from solution was quantified by measuring the nucleation induction time of aspirin, a representative small organic molecule. The polymer film was made from acrylic acid crosslinked with divinylbenzene (AA-co-DVB), with which aspirin could interact via hydrogen bonding. Polymer crosslinking was designed to avoid solvent uptake and to maintain the surface morphology when in contact with the solution. Due to the stochastic nature of nucleation events, 20 to 50 samples were tested simultaneously to obtain the probability distribution for the nucleation induction time. The average induction time, τ, was determined from a statistical analysis on the induction time data assuming that nucleation follows a Poisson distribution, P(t)=exp(−t/τ). The nucleation rate, J, was calculated from τ via J=1/τV, where V is the volume of solution, with the assumption that the time scale of nucleation is much longer than that of crystal growth, valid for this system.
In FIG. 14: Effect of the nanopore shape in AA-co-DVB polymer films on the nucleation kinetics of aspirin: flat vs. spherical pores (left); spherical pores vs. hexagonal pores and square pores of the same size (right). J is the nucleation rate, in number of nuclei per ml of solution per hour, calculated from the average nucleation induction time τ by J=1/τV, where V is the volume of solution. The standard errors of J were calculated from the regression on the induction time probability distribution following the Poisson distribution.
Nucleation Induction Time Measurement: Once synthesized, the polymer film with its substrate was inserted vertically into a 1 ml glass shell vial containing 200 μl 47 mg/ml aspirin solution in butyl acetate. For each polymer sample, 20-50 vials were assembled and immersed in a circulator stabilized at 50±0.1° C. to dissolve any pre-existing crystals, and then the solution was quench cooled to 5±0.1° C. by immersing into a second circulator. The number of vials in which crystallization occurred was recorded as a function of time. All the operations involving exposing polymer films, aspirin solutions and shell vials to the atmosphere were conducted inside a Bio Safety Cabinet to reduce impurity contamination to the lowest level. Efforts were made to clean all components before usage and aspirin solutions were filtered with an Acrodisc 0.2 μm PTFE syringe filter.

Data set [2] can be described thus: Solubility of ASA and ACM.
Data set [3] can be described thus: Isothermal titration calorimetry of ASA adsorption onto microgels. The note with it: 38/62 ethanol/water, 23° C.
Protocol: The ASA-polymer interactions were further quantified with the solute adsorption enthalpy via Isothermal Titration calorimetry (ITC), which also helps to deepen the understanding of partitioning effect. […] The data are presented both as instantaneous enthalpies at a given concentration, ΔHASA-gel (top), and as cumulative enthalpies up to a certain concentration, ΔHASA-gel ^tot (bottom).
Isothermal titration calorimetry (ITC): ITC measurements were performed on a TA Instruments NanoITC calorimeter. All experiments were performed at 23° C. using injections of ΔV=10 μL of titrant, with a waiting time of 1000 sec in between injections and 25 injections per measurement. For all measurements, The differential heat input, q(t), was measured as a function of time t over all injections, followed by integration of q(t) over each individual injection to obtain the molar heat of injection, Q(T,P,c). The molar heat of injection can then be cumulatively added over all previous injections, yielding the total molar heat, Qtot(T,P,c). […]
where ΔHASA-gel is the molar enthalpy of interaction between ASA and the microgel particles, and ΔHdil^i is the molar enthalpy of dilution of component i (ASA or gel, respectively) in 38/62 (v/v) ethanol/water. […] (X) was used to subtract the measured dilution enthalpies from the initial measurements of Q(T,P,c) in order to obtain ΔHASA-gel. […]
Data set [4] can be described thus: Nucleation induction time of aspirin on crosslinked polymer plates (non-porous and porous). The settings on record: for average induction time τ from linear fit ln(P)=−t/τ: bulk polymerization. On the procedure: To further quantify the surface chemistry effect on nucleation kinetics, nucleation induction time distribution was measured with the API of interest. Nucleation induction time is an indicator of the surface nucleation activity because it can be shortened when the presence of a surface lowers the free energy barrier of nucleation. Due to the stochastic nature of nucleation events, a significant number of experiments were performed to obtain the probability distribution of nucleation induction time.
As an example of induction time measurements, polymer plates were prepared by UV polymerizing the mixture of a monomer and the crosslinker divinylbenzene held by Teflon holders. Subsequent drying under vacuum removed unreacted monomer molecules. Monomers used to synthesize polymer plates were 4-Acryloylmorpholine (AM), 4-Hydroxybutyl acrylate (HBA), 2-Carboxyethyl acrylate (CEA), and styrene (STY). AM, HBA, and CEA served as positive controls, whilst STY a negative control. Each polymer plate was inserted together with the Teflon holder vertically into the aspirin solution, and then the solution was quenched to initiate nucleation. The starting concentration and the nucleation temperature were chosen such that the supersaturation produced was high enough to give reasonably short induction time but low enough to suppress bulk nucleation. 48 vials of each polymer sample were tested simultaneously and the fraction of vials crystallized was recorded as a function of time to produce a plot of cumulative probability distribution of induction time, as shown in FIG. 4.
In FIG. 4: Cumulative probability distribution of nucleation induction time (a) and statistical analysis on the same data sets (b) obtained with polymers synthesized via bulk polymerization. Crystallization of aspirin was performed at supersaturation S=4.75. The linear regression in […] follows the formula ln(P)=−t/τ to obtain the average induction time τ. P is the probability for no crystallization event to occur within time t. […] The results of linear fitting are i) STY ln(P)=−t/243.9, R^2=0.987; ii) CEA ln(P)=−t/113.6, R^2=0.978; iii) HBA ln(P)=−t/38.2, R^2=0.995.
For example, by the PIPS method, the mixture of a monomer and the crosslinker divinylbenzene dissolved in ethanol was subjected to UV irradiation to initiate the polymerization. As the molecular weight of the polymer increases to a critical point, dynamic asymmetry between solvent molecules and the polymer lead to nucleation and growth of solvent-rich regions within the polymer matrix. Subsequent evaporation of the solvent during the vacuum drying leaves pores on the polymer films. One common feature shared by most porous surfaces is a raised edge surrounding the pore region, which may be a sign of eruptional behavior caused by fast solvent evaporation under vacuum. As determined by AFM, the pores found on polymer sample AM were around 100 nm in width and 4 nm in depth. Comparatively, polymer sample HBA carried pores about 50 nm in width and 5-8 nm in depth. The non-porous AM and HBA samples were synthesized by bulk polymerization method and used as a control and had relatively smooth surfaces despite a few impurities.

As to `CC(=O)Oc1ccccc1C(=O)O` [aspirin], the entries for the “enhancement of aspirin nucleation rate relative to spherical pores” value in data set [1] (AA-co-DVB film with hexagonal pores) and in data set [1] (AA-co-DVB film with square pores) were “more than an order of magnitude” and “three-fold”, respectively. Further, the “Nucleation induction time τ” value is reported as 26 ± 7 min in data set [1] (AA-co-DVB film with hexagonal nanopores, 15 nm) and 138 ± 12 min in data set [1] (AA-co-DVB film with square nanopores, 125 nm). Besides, the solubility in data set [2] (aqueous with cosolvent or surfactant or cyclodextrin, 38/62 (v/v) ethanol/water mixture at 25° C) came to 32 mg/mL (≈ 178 mM). The solubility in water entry in data set [2] (water at 3° C) is recorded as “essentially insoluble”. For the same compound, the results for the “enthalpy of adsorption of ASA at infinite dilution ΔHASA-gel^∞” value in data set [3] (PEG400DA microgels) and in data set [3] (PEG400DA-co-AM microgels) were -9.8 kcal/mol and -12.3 kcal/mol, respectively. Further, the “average induction time τ from linear fit ln(P)=−t/τ” value in data set [4] (CEA polymer, S=4.75, FIG. 4, in h) was 113.6; in data set [4] (HBA polymer, S=4.75, FIG. 4), 38.2 h; in data set [4] (STY polymer, S=4.75, FIG. 4, in h) it was 243.9. For the same compound, the “Average induction time τ” value is given as 38.2 h in data set [4] (non-porous AM polymer, S = 4.75); 243.9 h in data set [4] (non-porous HBA polymer, S = 4.75); 8.8 h in data set [4] (porous AM polymer, S = 4.2); 54.6 h in data set [4] (porous HBA polymer, S = 4.2).
